pIC50: −log10 of the molar value. Activity calls are given as the source filed them. No cut-off for these calls is given here.
Assays:
[1] = target: T1, Pancreatic triacylglycerol lipase (Sus scrofa, UniProt P00591); experiment: Inhibition of porcine pancreatic lipase at 0.1 mg/ml using 4-MU oleate as substrate incubated for 30 min by fluorescence method relative to control; conditions: pig, 0.5 h
T1 sequence (P00591 whole entry): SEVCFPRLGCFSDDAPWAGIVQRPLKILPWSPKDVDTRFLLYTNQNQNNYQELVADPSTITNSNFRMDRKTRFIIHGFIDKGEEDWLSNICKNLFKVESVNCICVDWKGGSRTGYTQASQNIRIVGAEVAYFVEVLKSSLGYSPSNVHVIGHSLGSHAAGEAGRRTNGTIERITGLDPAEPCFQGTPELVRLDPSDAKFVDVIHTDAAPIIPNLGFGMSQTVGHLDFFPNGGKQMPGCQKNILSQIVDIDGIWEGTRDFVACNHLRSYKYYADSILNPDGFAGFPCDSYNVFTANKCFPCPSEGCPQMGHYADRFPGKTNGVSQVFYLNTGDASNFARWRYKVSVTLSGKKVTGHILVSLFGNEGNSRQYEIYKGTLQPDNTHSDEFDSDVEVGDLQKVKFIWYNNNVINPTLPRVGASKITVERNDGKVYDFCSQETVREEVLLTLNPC

[2] = target: T2, Pancreatic alpha-amylase (Sus scrofa, UniProt P00690); experiment: Inhibition of porcine pancreatic alpha-amylase at 0.1 to 0.5 mg/ml using potato starch as substrate preincubated for 5 mins followed by substrate addition and measured after 3 mins by DNS method; conditions: pig, 0.05 h
T2 sequence (P00690 whole entry): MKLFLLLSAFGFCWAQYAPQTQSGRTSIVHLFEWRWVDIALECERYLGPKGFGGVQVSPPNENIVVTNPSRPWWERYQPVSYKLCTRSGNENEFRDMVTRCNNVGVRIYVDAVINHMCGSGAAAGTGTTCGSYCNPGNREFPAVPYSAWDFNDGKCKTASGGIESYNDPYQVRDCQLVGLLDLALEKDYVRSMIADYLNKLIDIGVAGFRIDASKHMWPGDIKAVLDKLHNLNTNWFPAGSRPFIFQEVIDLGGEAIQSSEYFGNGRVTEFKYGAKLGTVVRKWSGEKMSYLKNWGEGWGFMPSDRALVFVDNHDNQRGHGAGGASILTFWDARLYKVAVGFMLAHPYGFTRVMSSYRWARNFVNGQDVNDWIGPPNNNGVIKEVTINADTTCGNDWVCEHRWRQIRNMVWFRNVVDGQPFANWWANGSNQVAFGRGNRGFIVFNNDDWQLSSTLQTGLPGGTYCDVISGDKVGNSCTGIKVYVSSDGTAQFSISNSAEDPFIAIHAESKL

[3] = target: Beta-glucuronidase (Escherichia coli (strain K12), UniProt P05804); experiment: Inhibition of Escherichia coli beta-glucuronidase using 4-methylumbelliferyl-beta-D-glucuronide hydrate as substrate preincubated for 5 mins followed by substrate addition and measured after 30 mins by fluorescence method
[4] = species on record: Rattus norvegicus; experiment: Inhibition of rat intestinal alpha-glucosidase at 1 mg/ml using pNPG as substrate preincubated for 3 mins followed by substrate addition and measured after 30 mins relative to control
[5] = target: T2, Pancreatic alpha-amylase; experiment: Inhibition of porcine pancreatic alpha-amylase at 1 mg/ml using potato starch as substrate preincubated for 5 mins followed by substrate addition and measured after 3 mins by DNS method relative to control; conditions: pig, 0.05 h
[6] = target: Beta-glucuronidase (Escherichia coli (strain K12)) (UniProt P05804); experiment: Potency index, ratio of DSA IC50 to compound IC50 for inhibition of Escherichia coli beta-glucuronidase using 4-methylumbelliferyl-beta-D-glucuronide hydrate as substrate preincubated for 5 mins followed by substrate addition and measured after 30 mins by fluorescence method
[7] = target: T1, Pancreatic triacylglycerol lipase; experiment: Inhibition of porcine pancreatic lipase up to 1 mg/ml using 4-MU oleate as substrate incubated for 30 min by fluorescence method relative to control; conditions: pig, 0.5 h
[8] = species on record: Rattus norvegicus; experiment: Inhibition of rat intestinal alpha-glucosidase at 0.5 mg/ml using pNPG as substrate preincubated for 3 mins followed by substrate addition and measured after 30 mins
[9] = target: T1, Pancreatic triacylglycerol lipase; experiment: Inhibition of porcine pancreatic lipase at 5 ug/ml using 4-MU oleate as substrate incubated for 30 min by fluorescence method relative to control; conditions: pig, 0.5 h
[10] = target: T2, Pancreatic alpha-amylase; experiment: Inhibition of porcine pancreatic alpha-amylase at 10 ug/ml using potato starch as substrate preincubated for 5 mins followed by substrate addition and measured after 3 mins by DNS method relative to control; conditions: pig, 0.05 h
[11] = species on record: Rattus norvegicus; experiment: Inhibition of rat intestinal alpha-glucosidase at 0.02 mM using pNPG as substrate preincubated for 3 mins followed by substrate addition and measured after 30 mins relative to control

Beta-glucuronidase (Escherichia coli (strain K12)), sequence (P05804 whole entry, looked up): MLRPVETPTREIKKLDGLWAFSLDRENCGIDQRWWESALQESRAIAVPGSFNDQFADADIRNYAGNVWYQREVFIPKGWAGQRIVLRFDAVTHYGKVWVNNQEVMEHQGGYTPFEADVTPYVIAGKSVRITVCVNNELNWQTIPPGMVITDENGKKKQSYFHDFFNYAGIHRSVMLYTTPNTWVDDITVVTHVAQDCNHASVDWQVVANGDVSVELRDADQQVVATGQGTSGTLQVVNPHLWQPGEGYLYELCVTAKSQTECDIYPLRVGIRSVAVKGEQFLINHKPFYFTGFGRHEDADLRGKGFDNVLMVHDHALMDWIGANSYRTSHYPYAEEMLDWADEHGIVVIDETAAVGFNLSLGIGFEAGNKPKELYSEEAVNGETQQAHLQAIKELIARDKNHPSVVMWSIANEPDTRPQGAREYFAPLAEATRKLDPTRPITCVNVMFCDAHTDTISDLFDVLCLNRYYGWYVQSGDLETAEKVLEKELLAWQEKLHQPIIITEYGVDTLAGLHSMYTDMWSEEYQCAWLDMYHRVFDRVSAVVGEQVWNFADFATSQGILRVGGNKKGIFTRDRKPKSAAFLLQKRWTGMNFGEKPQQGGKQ
Beta-glucuronidase, sequence (P05804 whole entry): as the sequence (P05804 whole entry, looked up) above

Compound | inhibition (INH) [1] | inhibition (INH) [2] | pIC50 [3] | inhibition [4] | inhibition (INH) [5] | Ratio IC50 [6] | inhibition (INH) [7] | inhibition [8] | inhibition (INH) [9] | inhibition (INH) [10] | inhibition [11]
OC[C@@H]1Oc2cc([C@@H]3OC[C@@H]4[C@H]3CO[C@H]4c3ccc4c(c3)O[C@@H](CO)[C@H](c3ccc(O)c(O)c3)O4)ccc2O[C@H]1c1ccc(O)c(O)c1 | < 56% | Not Active | 6.02 | inactive | 21% | 3.5 to 39.5 | 85 to 93% | inactive |  |  | 
CCCCCCCCCCC[C@@H](C[C@@H]1OC(=O)[C@H]1CCCCCC)OC(=O)[C@H](CC(C)C)NC=O [ORLISTAT] |  |  |  |  |  |  |  |  | 96% |  | 
C[C@H]1O[C@H](O[C@H]2[C@H](O)[C@@H](O)[C@@H](O[C@H]3[C@H](O)[C@@H](O)C(O)O[C@@H]3CO)O[C@@H]2CO)[C@H](O)[C@@H](O)[C@@H]1N[C@H]1C=C(CO)[C@@H](O)[C@H](O)[C@H]1O (stereo not given in full) [ACARBOSE] |  |  |  |  |  |  |  |  |  | 94% | 80%
OC/C=C/c1ccc2c(c1)O[C@@H](CO)[C@H](c1ccc3c(c1)O[C@H](CO)[C@@H](c1ccc(O)c(O)c1)O3)O2 | < 56% | Not Active | 5.40 | inactive | 21% | 3.5 to 39.5 | 85 to 93% | inactive |  |  | 
OC[C@H]1Oc2ccc([C@@H]3OC[C@@H]4[C@H]3CO[C@H]4c3ccc4c(c3)O[C@H](c3ccc(O)c(O)c3)[C@@H](CO)O4)cc2O[C@@H]1c1ccc(O)c(O)c1 | < 56% | Not Active | 6.21 | inactive | 21% | 3.5 to 39.5 | 85 to 93% | inactive |  |  | 
OC/C=C/c1ccc2c(c1)O[C@H](c1ccc3c(c1)O[C@@H](c1ccc(O)c(O)c1)[C@H](CO)O3)[C@@H](CO)O2 | < 56% | Not Active | 5.16 | 12% |  | 3.5 to 39.5 | 85 to 93% | inactive |  |  | 
O=C(O)[C@@H](O)[C@H]1OC(=O)[C@H](O)[C@H]1O |  |  | 4.61 |  |  |  |  |  |  |  | 

Source: ChEMBL document CHEMBL4610065, “Isolation and Structural Characterization of Specific Bacterial β-Glucuronidase Inhibitors from Noni (Morinda citrifolia) Fruits” (J Nat Prod, 2020)
